The record followed here is US20070155679A1, “USE OF BR[…] THE TREATMENT OF […] ASSOCIATED WITH H[…] NOVEL MEDICAMENT COMBINATIONS” (priority 2000, published 2007).

The assay concerns hypertrophic cardiomyopathy. Nature of the assay: Cat with severe hypertrophic cardiomyopathy treated with cilobradine. To be noted: 0.3 mg/kg per os, 2x daily. It is filed as in vivo. From the text: The new use of the bradycardiac substances according to the invention was investigated with the if channel blocker cilobradine by way of example, using the following method:
The hypertrophic cardiomyopathy in the cat serves as a model for the corresponding disease in humans (Kittleson et al., Circulation 91, 3172-3180 (1999)).

For `COc1ccc(CCN2CCC[C@H](CN3CCc4cc(OC)c(OC)cc4CC3=O)C2)cc1OC` [cilobradine], where the note is “cat with severe hypertrophic cardiomyopathy”, the “clinical symptoms (relief from pain, normal ECG, return of normal physiological activity pattern)” value is recorded as “significant improvement in clinical symptoms”. For the same compound, the “myocardial hypertrophy at follow-up” value (cat, follow-up after one year and after about 2 years' treatment) is recorded as “regression in myocardial hypertrophy”.
